Structures are written as SMILES.

The nature of experiment [1]: Induction of IFN gamma secretion in C57BL/6 mouse spleen cells at 100 ng/ml after 72 hrs relative to OCH. Format: functional.
Experiment [2] can be described thus: Induction of IL4 secretion in C57BL/6 mouse spleen cells at 100 ng/ml after 72 hrs relative to OCH. Format: functional.

On to `CCCCCCCCCCCCCCCCCCCCCCCC(=O)N[C@@H](CO[C@H]1O[C@H](CO)[C@H](O)[C@H](O)[C@H]1O)[C@H](O)[C@H](O)CCCCC`, for which the Activity in experiment [1] and in experiment [2] was 100% each time.
For `CCCCCCCCCCCCCCCCCCCCCCCC(=O)N[C@@H](CO[C@H]1O[C@H](CO)[C@H](O)[C@H](O)[C@H]1O)[C@H](O)[C@H](O)CC`, the Activity worked out at 81% in experiment [1] and 102% in experiment [2].
In the case of `CCCCCCCCCCCCCCCCCCCCCCCC(=O)N[C@@H](CO[C@H]1O[C@H](CO)[C@H](O)[C@H](O)[C@H]1O)[C@H](O)[C@H](O)CCC`, the Activity in experiment [1] turned out to be 96%; in experiment [2] it was 105%.
On to `CCCCCCCCCCCCCCCCCCCCCCCCCCCC(=O)N[C@@H](CO[C@H]1O[C@H](CO)[C@H](O)[C@H](O)[C@H]1O)[C@H](O)[C@H](O)CCCCC`, for which the Activity in experiment [1] is recorded as 761%; in experiment [2] it was 178%.
Consider `CCCCCCCCCCCCCCCCCCCCCCCC(=O)N[C@@H](CO[C@H]1O[C@H](CCl)[C@H](O)[C@H](O)[C@H]1O)[C@H](O)[C@H](O)CC1CCCC1`, for which the Activity in experiment [1] stood at 74%; in experiment [2], 98%.
On to `CCCCCCCCCCCCCCCCCCCCCCCC(=O)N[C@@H](CO[C@H]1O[C@H](CCl)[C@H](O)[C@H](O)[C@H]1O)[C@H](O)[C@H](O)Cc1ccccc1`, for which the Activity is recorded as 284% in experiment [1] and 211% in experiment [2].
`CCCCCCCCCCCCCCCCCCCC(=O)N[C@@H](CO[C@H]1O[C@H](CO)[C@H](O)[C@H](O)[C@H]1O)[C@H](O)[C@H](O)CCCCC`: the Activity in experiment [1] was 9%; in experiment [2], 6%.
On to `CCCCCCCCCCCCCCCCCCCCCCCC(=O)N[C@@H](CO[C@H]1O[C@H](CO)[C@H](O)[C@H](O)[C@H]1O)[C@H](O)[C@H](O)CCCC`, for which the Activity in experiment [1] amounted to 112%; in experiment [2], 115%.
`CCCCCCCCCCCCCCCCCCCCCCCCCC(=O)N[C@@H](CO[C@H]1O[C@H](CO)[C@H](O)[C@H](O)[C@H]1O)[C@H](O)[C@H](O)CCCCC`: the Activity in experiment [1] stood at 504%; in experiment [2] it was 129%.
As for `CCCCCCCCCCCCCCCCCCCCCCC(=O)N[C@@H](CO[C@H]1O[C@H](CO)[C@H](O)[C@H](O)[C@H]1O)[C@H](O)[C@H](O)CCCCC`, the results for the Activity in experiment [1] and in experiment [2] were 93% and 103%, respectively.
With `CCCCCCCCCCCCCCCCCCCCCCCCC(=O)N[C@@H](CO[C@H]1O[C@H](CO)[C@H](O)[C@H](O)[C@H]1O)[C@H](O)[C@@H](O)CCCCC`, the Activity in experiment [1] is reported as 103%; in experiment [2], 154%.
For `CCCCCCCCCCCCCCCCCCCCCC(=O)N[C@@H](CO[C@H]1O[C@H](CO)[C@H](O)[C@H](O)[C@H]1O)[C@H](O)[C@H](O)CCCCC`, the Activity in experiment [1] is given as 46%; in experiment [2], 51%.
Take `CCCCCCCCCCCCCCCCCCCCCCCCCC(=O)N[C@@H](CO[C@H]1O[C@H](CO)[C@H](O)[C@H](O)[C@H]1O)[C@H](O)[C@H](O)CCCCCCCCCCCCCC` [RGI-7000]: the Activity is recorded as 569% in experiment [1] and 128% in experiment [2].

Values taken from ChEMBL document CHEMBL1147986, “Minimum structure requirement of immunomodulatory glycolipids for predominant Th2 cytokine induction and the discovery of non-linear phytosphingosine analogs” (2007).
